Data published in patent US5364877A, “Indole derivatives as 5-lipoxygenase inhibitors” (ICI Pharma, priority 1990, dated 1994).

Target: T1, 5-LO (Rattus norvegicus, UniProt P12527)
T1 construct: liberation of LTB4 induced by zymosan within an air pouch generated within the subcutaneous tissue of the back of male rats; endogenous in cells; host or cells: cells in the air pouch of living male rats (in vivo)
T1 sequence (P12527 1-673): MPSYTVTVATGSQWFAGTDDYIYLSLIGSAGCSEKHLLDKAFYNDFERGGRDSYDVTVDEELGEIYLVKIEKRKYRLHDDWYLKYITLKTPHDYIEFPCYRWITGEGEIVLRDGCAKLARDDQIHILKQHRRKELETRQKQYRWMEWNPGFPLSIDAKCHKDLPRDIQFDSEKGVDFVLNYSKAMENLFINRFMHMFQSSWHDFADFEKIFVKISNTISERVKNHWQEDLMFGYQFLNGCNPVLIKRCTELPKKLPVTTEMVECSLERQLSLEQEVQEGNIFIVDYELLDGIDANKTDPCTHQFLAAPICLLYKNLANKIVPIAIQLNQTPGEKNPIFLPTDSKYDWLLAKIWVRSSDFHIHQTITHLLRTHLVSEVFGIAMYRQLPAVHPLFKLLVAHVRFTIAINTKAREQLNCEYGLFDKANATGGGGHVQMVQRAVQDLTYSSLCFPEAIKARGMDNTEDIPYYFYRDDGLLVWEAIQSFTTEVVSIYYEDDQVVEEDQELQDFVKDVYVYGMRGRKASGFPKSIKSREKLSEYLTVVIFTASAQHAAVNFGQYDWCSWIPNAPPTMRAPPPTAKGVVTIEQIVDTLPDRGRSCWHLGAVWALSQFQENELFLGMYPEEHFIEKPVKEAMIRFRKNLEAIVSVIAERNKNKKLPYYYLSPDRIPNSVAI
Assay: Test g) zymosan-induced liberation of LTB4 within an air pouch in male rats
Assay type: in vivo
Settings: rat, 3 h; test g), oral
Procedure: g) An in vivo system involving measuring the effects of a test compound administered orally against the liberation of LTB4 induced by zymosan within an air pouch generated within the subcutaneous tissue of the back of male rats. The rats are anaesthetised and air pouches are formed by the injection of sterile air (20 ml). A further injection of air (10 ml) is similarly given after 3 days. At 6 days after the initial air injection the test compound is administered (usually orally as the suspension produced when a solution of the test compound in dimethylsulphoxide is added to hydroxypropylmethylcellulose), followed by the intrapouch injection of zymosan (1 ml of a 1% suspension in physiological saline). After 3 hours the rats are killed, the air pouches are lavaged with physiological saline, and the specific radioimmunoassay described above is used to assay LTB4 in the washings. This test provides an indication of inhibitory effects against 5-LO in an inflammatory milieu.

COC1(c2cccc(Sc3ccc4c(c3)n(C)c(=O)n4C)c2)CCOCC1 [Example 1, 4-[3-(1,3-dimethyl-2-oxo-2,3-dihydrobenzimidazol-5-ylthio)phenyl]-4-methoxytetrahydropyran]
ED50: < 2 mg/kg
